Assay results reported in patent publication US7528250B2, “Chroman derivatives and uses thereof” (Roche Palo Alto LLC, priority 2004, dated 2009).
Counter-ions that a name gives are not always drawn.

Experiments:
[1] = molecular target: T1, recombinant human 5-HT6 receptor (Homo sapiens, UniProt P50406); assay: Radioligand binding, [3H]LSD competition, membranes of HEK293 cells expressing 5-HT6; conditions: HEK293 cell membranes, pH 7.4, 37° C., 75 min, read-out: pKi for 5-HT6 (converted)
T1 construct: expressed in transfected cells; membranes
Method: (§1) The binding activity of compounds of this invention in vitro was determined as follows. Duplicate determinations of 5-HT6 ligand affinity were made by competing for binding of [^3H]LSD in cell membranes derived from HEK293 cells stably expressing recombinant human 5-HT6 receptor. Duplicate determinations of 5-HT2A ligand affinity were made by competing for binding of [^3H]Ketanserin (3-(2-(4-(4-fluorobenzoyl)piperidinol)ethyl)-2,4(1H,3H)-quinazolinedione) in cell membranes derived from CHO-K1 cells stably expressing recombinant human 5-HT2A receptor. Membranes were prepared from HEK 293 cell lines by the method described by Monsma et al., Molecular Pharmacology, Vol. 43 pp. 320-327 (1993), and from CHO-K1 cell lines as described by Bonhaus et al., Br J Pharmacol. June; 115(4):622-8 (1995).
(§2) For estimation of affinity at the 5-HT6 receptor, all determinations were made in assay buffer containing 50 mM Tris-HCl, 10 mM MgSO4, 0.5 mM EDTA, 1 mM ascorbic acid, pH 7.4 at 37° C., in a 250 microliter reaction volume. […]
(§3) Assay tubes containing [^3H] […] LSD or [^3H]Ketanserin were determined as radioactive counts per minute using Packard TopCount.
(§4) Displacement of [^3H]LSD or [^3H]Ketanserin from the binding sites was quantified by fitting concentration-binding data to a 4-parameter logistic equation: […]

[2] = molecular target: T2, recombinant human 5-HT2A receptor (Homo sapiens, UniProt P28223); assay: Radioligand binding, [3H]Ketanserin competition, membranes of CHO-K1 cells expressing 5-HT2A; conditions: CHO-K1 cell membranes, pH 7.4, 32° C., 60 min, read-out: pKi for 5-HT2A (converted)
T2 construct: expressed in transfected cells; membranes
Method: as §1, §2, §3, §4

T2 sequence (P28223 whole entry): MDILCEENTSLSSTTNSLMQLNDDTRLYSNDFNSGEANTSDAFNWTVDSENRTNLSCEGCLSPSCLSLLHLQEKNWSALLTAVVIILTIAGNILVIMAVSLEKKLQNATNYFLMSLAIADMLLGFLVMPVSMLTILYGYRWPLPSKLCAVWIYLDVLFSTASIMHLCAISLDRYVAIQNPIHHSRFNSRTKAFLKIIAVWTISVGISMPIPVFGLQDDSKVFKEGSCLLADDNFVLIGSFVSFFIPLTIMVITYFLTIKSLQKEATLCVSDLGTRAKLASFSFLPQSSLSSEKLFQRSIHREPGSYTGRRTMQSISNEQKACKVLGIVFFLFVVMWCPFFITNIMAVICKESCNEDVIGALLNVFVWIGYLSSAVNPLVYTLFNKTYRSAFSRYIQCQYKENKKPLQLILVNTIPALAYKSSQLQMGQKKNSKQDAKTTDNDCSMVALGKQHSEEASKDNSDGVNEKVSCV
T1 sequence (P50406 whole entry): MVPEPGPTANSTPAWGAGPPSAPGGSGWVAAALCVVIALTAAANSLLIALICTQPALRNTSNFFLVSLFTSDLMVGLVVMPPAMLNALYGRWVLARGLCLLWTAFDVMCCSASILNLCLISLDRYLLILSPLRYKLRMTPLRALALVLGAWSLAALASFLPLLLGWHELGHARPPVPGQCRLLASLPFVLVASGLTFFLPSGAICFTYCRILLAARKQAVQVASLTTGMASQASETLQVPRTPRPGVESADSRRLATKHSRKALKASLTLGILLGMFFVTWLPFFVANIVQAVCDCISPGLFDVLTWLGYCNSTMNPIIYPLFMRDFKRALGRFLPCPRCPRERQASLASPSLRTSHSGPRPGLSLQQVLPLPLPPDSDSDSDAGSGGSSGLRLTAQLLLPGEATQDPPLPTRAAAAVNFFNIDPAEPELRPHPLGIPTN

Row | melting point [°C] | Ki [1] [nM] | Ki [2] [nM] | SMILES
1 | 243 to 249 | – | – | O=S(=O)(c1ccccc1)c1ccc2c(c1)OCCC2N1CCNCC1 (stereo not drawn) (as salt: HCl) [Compound 1, 1-(7-Benzenesulfonyl-chroman-4-yl)-piperazine]
2 | – | ~0.417 | ~46.8 | O=S(=O)(c1ccccc1)c1ccc2c(c1)OCCC2N1CCNCC1 (stereo not drawn) [Compound 1, 1-(7-Benzenesulfonyl-chroman-4-yl)-piperazine]
